Assay results taken from patent US6855669B2, “Use of α,β unsaturated aliphatic aldehydes and ketones to inhibit potato tuber sprouting” (Washington State University Research Foundation, priority 2000, dated 2005).
Marks after values point to notes of the source that are not given here.

Columns and labels:
Format in all cases: in vivo, Solanum tuberosum
[1] = test system: Russet Burbank seed tubers; test: Example 4: sprout inhibition by aldehyde vapors, 26 days of sprouting; details: for Average Sprout Length / External Pit Rating (1-4 scale) / Sprout Fresh Weight: 12 hours vapor, 26 days at 18° C.
Experimental: Methods: Eleven-month-old Russet Burbank seed tubers were taken from a 4° C. storage area and exposed to trans-2-hexenal (0.6-4.3 mmol/kg), trans-2-heptenal (0.6-3.8 mmol/kg) and trans-2-octenal (0.5-2.5 mmol/kg) vapors separately in 3.9 L glass containers for 12 hours at 23° C. The aldehydes were applied to filter paper inside petri dishes within each jar. Control tubers were enclosed in a glass container without any aldehyde. Sprouts were ‘peeping’ (approximately 3 mm in length) at the time of treatment. Following treatment, tubers were placed at 18° C. (95% relative humidity) in the dark to sprout for 26 days. The experiment was set up in a randomized complete block design (5 replicates) with chemicals and concentrations arranged factorially. Effects of the aliphatic aldehydes on the development of etiolated sprouts were documented at 20 days (photographically) and 26 days of sprouting.

[2] = test system: Russet Burbank seed-tubers; test: Example 3: etiolated sprout development and tuber quality after 28 days; details: 0.96 mmol/kg, 12 hours at 23° C.; 28 days at 15° C.
Experimental: (§1) Methods: Eleven-month-old Russet Burbank seed-tubers were taken from a 4° C. storage area and treated with 250 μL of trans-2-hexenal in a 9.2 liter (L) glass desiccator (0.96 mmol/kg potato tubers) for 12 hours at 23° C. The trans-2-hexenal was pipetted onto Whatman #1 filter paper in a glass petri dish (5.5 cm diameter) inside the desiccator. Control tubers were enclosed in a desiccator without trans-2-hexenal. Following treatment, the tubers were enclosed in 1 L […] chambers (3 tubers per chamber) that were placed at 15° C. A continuous airflow (approximately 80 mL/min; 21% O2, 79% N2) was established around the tubers through inlet and outlet ports in the lid of each chamber. Respiration rates were determined at four hour intervals over a 28 day storage period by quantifying CO2 in the outflow from each chamber with a LI-COR model 6262 infra-red gas analyzer (LI-COR Inc., Lincoln Nebr.). The experiment was set up in a randomized complete block design (5 replicates) with two treatments (control and trans-2-hexenal-treated). The effect of trans-2-hexenal exposure on the development of etiolated sprouts was assessed 28 days after removal from the 4° C. storage.

[3] = test system: Russet Burbank seed-tubers; test: Example 2: etiolated sprout development, tuber quality and soluble carbohydrates, Russet Burbank; details: 4.7 mmol/kg potato tubers, 25 days
Experimental: (§2) Methods: Ten-month-old Ranger Russet, Umatilla and Russet Burbank seed-tubers were taken from 4° C. storage and treated with trans-2-hexenal in 9.2-L glass desiccators as described in Example 1. The tubers were exposed to trans-2-hexenal for 0, 12 and 24 hours at 23° C. at a concentration of 4.7 mmol/kg potato tubers. Regardless of exposure time, all tubers remained enclosed in the chambers for the entire 24 hour period. This was accomplished by introducing the trans-2-hexenal at zero-time (into the 24 hour treatment desiccator) and after 12 hour incubation (into the 12 hour treatment desiccator) through a septum in the top of the closed desiccator. The treated tubers were planted into moistened peat/perlite/soil potting mix and placed in the dark at 24° C. to stimulate sprouting. The experiment was set up in a randomized complete block design (5 replicates) with treatments (3 cultivars×3 exposure times) arranged factorially. Effects of trans-2-hexenal exposure and cultivar on etiolated sprout development and tuber quality were assessed 25 days after removal from the 4° C. storage.

[4] = test system: Ranger Russet seed-tubers; test: Example 2: etiolated sprout development and tuber quality, Ranger Russet; details: 4.7 mmol/kg potato tubers, 25 days
Experimental: as §2

[5] = test system: Russet Burbank and Ranger Russet seed-tubers; test: Example 5: sprout inhibition by C5 to C9 trans-2 aldehydes over prolonged storage (17 weeks); details: 0.5, 0.75 and 1.0 mmol/kg tuber, 24 hours; 17 weeks at 8° C., 95% RH
Experimental: (46° F.), 95% relative humidity (RH), for 17 weeks. As described more fully in Example 5, four-month-old tubers (previously stored at 4° C.) were treated (for 24 h) with different concentrations of the aldehydes in mid January. The treated tubers were then stored in the dark for 120 days (17 weeks).
Methods: Four-month-old Russet Burbank and Ranger Russet seed-tubers were taken from a 4° C. storage area and treated (Jan. 10, 2001) separately with 0, 0.5, 0.75 and 1.0 mmol/kg tuber of trans-2-pentenal, trans-2-hexenal, trans-2-heptenal, trans-2-octenal, and trans-2-nonenal in 3.9 L glass jars. The volume of inhibitor required to achieve the above rates was pipetted onto filter paper discs inside the lids of each jar. The concentration of inhibitors in the headspace of the jars was equal at 0.16 mmol/L. The tubers were enclosed in the jars and thus exposed to inhibitor vapor for 24 hours at 23° C. Control tubers were enclosed in a glass jar without any aldehyde. Following treatment, tubers were removed from the jars and placed at 8° C. (46° F.) (95% relative humidity) in the dark to sprout for 120 days (17 weeks). The experiment was set up in a randomized complete block design (5 replicates) with chemicals and concentrations arranged factorially. Effects of the aliphatic aldehydes on the development of etiolated sprouts were documented photographically and quantitatively (sprout number and fresh weight) after 120 days of storage.

[6] = test system: Russet Burbank seed-tubers; test: Example 3: potato tuber respiration (CO2 in outflow, infra-red gas analyzer); details: 0.96 mmol/kg
Experimental: as §1

SMILES: CCC/C=C/C=O [trans-2-hexenal]
- Average Sprout Length ([1]; 0.63 mmol/kg): 0.2 cm/tuber
- External Pit Rating (1-4 scale) ([1]; 0.63 mmol/kg): 1.4
- Sprout Fresh Weight ([1]; 0.63 mmol/kg): 0.04 g/tuber
- Average Sprout Length ([1]; 1.33 mmol/kg): 0 cm/tuber
- External Pit Rating (1-4 scale) ([1]; 1.33 mmol/kg): 2.0
- Sprout Fresh Weight ([1]; 1.33 mmol/kg): 0 g/tuber
- Average Sprout Length ([1]; 2.06 mmol/kg): 0 cm/tuber
- External Pit Rating (1-4 scale) ([1]; 2.06 mmol/kg): 2.6
- Sprout Fresh Weight ([1]; 2.06 mmol/kg): 0 g/tuber
- Average Sprout Length ([1]; 2.50 mmol/kg): 0 cm/tuber
- External Pit Rating (1-4 scale) ([1]; 2.50 mmol/kg): 3.5
- Sprout Fresh Weight ([1]; 2.50 mmol/kg): 0 g/tuber
- Average Sprout Length ([1]; 4.34 mmol/kg): 0 cm/tuber
- External Pit Rating (1-4 scale) ([1]; 4.34 mmol/kg): 2.8
- Sprout Fresh Weight ([1]; 4.34 mmol/kg): 0 g/tuber
- external pitting (in words) ([1]; lowest concentration): minimal
- Average Sprout Length [2]: 0** cm/tuber
- Sprout fresh wt [2]: 0** g/tuber
- Tuber external pit rating [2]: 2.2**
- Tuber fresh wt loss [2]: 11.8** g/tuber
- Average Sprout Length ([3]; 12 h exposure): 0 cm/tuber
- External Pit Rating (1-4 scale) ([3]; 12 h exposure): 1.8
- Soft Rot Lesions ([3]; 12 h exposure): 0.6 no/tuber
- Soluble Carbohydrates Fru ([3]; 12 h exposure): 19.5 mg/g dry wt.
- Soluble Carbohydrates Glu ([3]; 12 h exposure): 19.0 mg/g dry wt.
- Soluble Carbohydrates Glu + Fru ([3]; 12 h exposure): 38.5 mg/g dry wt.
- Soluble Carbohydrates Suc ([3]; 12 h exposure): 6.30 mg/g dry wt.
- Sprout Fresh Weight ([3]; 12 h exposure): 0 g/tuber
- Average Sprout Length ([3]; 24 h exposure): 0 cm/tuber
- External Pit Rating (1-4 scale) ([3]; 24 h exposure): 2.2
- Soft Rot Lesions ([3]; 24 h exposure): 0.4 no/tuber
- Soluble Carbohydrates Fru ([3]; 24 h exposure): 17.8 mg/g dry wt.
- Soluble Carbohydrates Glu ([3]; 24 h exposure): 16.5 mg/g dry wt.
- Soluble Carbohydrates Glu + Fru ([3]; 24 h exposure): 34.3 mg/g dry wt.
- Soluble Carbohydrates Suc ([3]; 24 h exposure): 6.28 mg/g dry wt.
- Sprout Fresh Weight ([3]; 24 h exposure): 0 g/tuber
- Average Sprout Length ([4]; 12 h exposure): 0 cm/tuber
- External Pit Rating (1-4 scale) ([4]; 12 h exposure): 3.1
- Soft Rot Lesions ([4]; 12 h exposure): 1.0 no/tuber
- Sprout Fresh Weight ([4]; 12 h exposure): 0 g/tuber
- Average Sprout Length ([4]; 24 h exposure): 0 cm/tuber
- External Pit Rating (1-4 scale) ([4]; 24 h exposure): 3.7
- Soft Rot Lesions ([4]; 24 h exposure): 1.2 no/tuber
- Sprout Fresh Weight ([4]; 24 h exposure): 0 g/tuber
- inhibition of sprout development (in words) [5]: inhibited sprouting in a concentration-dependent manner
- time after treatment at which respiration reached a level equal to the untreated tubers ([6]; 12 hours, storage at 15° C.): ≤ 32 h
- respiration lower than control tubers ([6]; by the end of the study (27 day storage at 15° C.)): 2.5 fold
- respiration rate greater than untreated tubers ([6]; immediately following the 12 hour treatment period): 38%
